Laboratory results from US4721787A, “Process for the preparation of benzo-(pyrano and thiopyrano)-pyridines” (Ciba-Geigy Corporation, priority 1985, dated 1988).

Test system: presynaptic dopamine receptor (dopamine autoreceptor)
Assay: rat gamma-butyrolactone (GBL) model, in-vivo presynaptic dopamine agonist (autoreceptor agonist) activity
Settings: i.p.
Protocol: Indicative of potential neuroleptic activity of the compounds of the invention, the in-vivo presynaptic dopamine agonist activity (also called dopamine autoreceptor agonist activity) is determined in the rat gamma-butyrolactone (GBL) model by a modification of the procedure described by Walters and Roth, Naunyn Schmiedeberg's Arch. Pharmacol. 296, 5 (1976). In this model, a presynaptic dopamine agonist inhibits the GBL-induced accumulation of the dopamine precursor DOPA after pretreatment with 3-hydroxybenzylhydrazine (NSD-1015), a DOPA decarboxylase inhibitor.
Test compounds are dissolved in 0.9% saline, with sodium metabisulfite to prevent oxidation, if required. […] Dihydroxyphenylalanine (DOPA) is analyzed by High Pressure Liquid Chromatography/Electrochemistry (HPLC/EC) techniques using a Bio-analytical Systems (BAS) Model LC-150 series Liquid Chromatograph. […] Compounds are detected with an electro-chemical detector having an oxidizing potential of 0.7 volts and sensitivity setting of 20 nAmps/V. Tissue concentrations and recoveries are calculated by using the internal standard dihydroxybenzylamine (DHBA). […] Data is statistically analysed by one-way Analysis of Variance with Duncan's Multiple Comparison Test. The activity of the test compounds is determined as the percent inhibition of DOPA accumulation at a given dose. […]

## CCCN1CCC[C@@H]2c3cc(O)ccc3OC[C@H]21.Cl (relative stereo) [trans-9-hydroxy-4-propyl-1,2,3,4a,5,10b-hexahydro-4H-[1]-benzopyrano[3,4-b]pyridine hydrochloride]
  ED50 in the GBL model (inhibition of DOPA accumulation by 50%): about 0.16 mg/kg
